Test results: patent US7476741B2, “Substituted 4H-chromens, 2H-chromenes, chromans and analogs as activators of caspases and inducers of apoptosis and the use thereof” (Cytovia, Inc., priority 2002, dated 2009)

Assays:
[1] = system: T-47D; test: Caspase cascade activation assay (N-(Ac-DEVD)-N'-ethoxycarbonyl-R110 fluorogenic substrate) in T-47D cells; format: cell-based; conditions: T-47D human breast cancer cells, 24 h incubation; ratio of net RFU of compound to control
Method: (§1) Human breast cancer cell lines T-47D and ZR-75-1 were grown according to media component mixtures designated by American Type Culture Collection +10% FCS (Invitrogen Corporation), in a 5% CO2−95% humidity incubator at 37° C. T-47D and ZR-75-1 cells were maintained at a cell density between 30 and 80% confluency at a cell density of 0.1 to 0.6×10^6 cells/mL. Cells were harvested at 600×g and resuspended at 0.65×10^6 cells/mL into appropriate media +10% FCS. An aliquot of 45 μL of cells was added to a well of a 96-well microtiter plate containing 5 μL of a 10% DMSO in RPMI-1640 media solution containing 0.16 to 10 μM of 4-(3-bromo-4,5-dimethoxyphenyl)-3-cyano-4H-indolo[4,5-b]pyran (Example 1) or other test compound (0.016 to 1 μM final). An aliquot of 45 μL of cells was added to a well of a 96-well microtiter plate containing 5 μL of a 10% DMSO in RPMI-1640 media solution without test compound as the control sample. The samples were mixed by agitation and then incubated at 37° C. for 24 h in a 5% CO2-95% humidity incubator. After incubation, the samples were removed from the incubator and 50 μL of a solution containing 20 μM of N-(Ac-DEVD)-N′-ethoxycarbonyl-R110 (SEQ ID No.:1) fluorogenic substrate (Cytovia, Inc.; U.S. Pat. No. 6,335,429), 20% sucrose (Sigma), 20 mM DTT (Sigma), 200 mM NaCl (Sigma), 40 mM Na PIPES buffer pH 7.2 (Sigma), and 500 μg/mL lysolecithin (Calbiochem) was added. The samples were mixed by agitation and incubated at room temperature. Using a fluorescent plate reader (Model 1420 Wallac Instruments), an initial reading (T=0) was made approximately 1-2 min after addition of the substrate solution, employing excitation at 485 nm and emission at 530 nm, to determine the background fluorescence of the control sample. After the 3 h incubation, the samples were read for fluorescence as above (T=3 h).
(§2) The Relative Fluorescence Unit values (RFU) were used to calculate the sample readings as follows: RFU(T=3h)−Control RFU(T=0)=Net RFU(T=3h)
(§3) The activity of caspase cascade activation was determined by the ratio of the net RFU value for 4-(3-bromo-4,5-dimethoxyphenyl)-3-cyano-4H-indolo[4,5-b]pyran or other test compound to that of control samples. The EC50 (nM) was determined by a sigmoidal dose-response calculation (Prism 2.0, GraphPad Software Inc.).

[2] = system: ZR-75-1; test: Caspase cascade activation assay (N-(Ac-DEVD)-N'-ethoxycarbonyl-R110 fluorogenic substrate) in ZR-75-1 cells; format: cell-based; conditions: ZR-75-1 human breast cancer cells, 24 h incubation; sigmoidal dose-response; read-out: ZR-75-1 EC50 (nM) (potency)
Method: as §1, §2, §3

Row | Structure (SMILES) | T-47D Ratio (caspase activity) [1] | EC50 [2]
1 | COc1ccc2c(c1)OC(=O)CC2c1cc(OC)c(OC)c(OC)c1 (stereo not shown) [Example 31, 7-Methoxy-4-(3,4,5-trimethoxyphenyl)-chroman-2-one] | 1.3 | 573 nM
2 | COc1ccc(C2CC(=O)Oc3c2cc(OC)c(OC)c3OC)cc1O (stereo not shown) [Example 32, 4-(3-Hydroxy-4-methoxyphenyl)-6,7,8-trimethoxy-chroman-2-one] | 4.4 | 3080 nM
